SMILES strings stand for the structures.

This is an account of results in ChEMBL document CHEMBL1133428, “Naphthyl ketones: a new class of Janus kinase 3 inhibitors” (Bioorg Med Chem Lett, 2000).

For test [1], the target named is Cyclin-dependent kinase 4 (Homo sapiens, UniProt P11802). Kind of test: Inhibition of Cyclin-dependent kinase 4.
The target of test [2] is Tyrosine-protein kinase Lck (Homo sapiens, UniProt P06239). Put plainly: Inhibition of p56 Lck tyrosine kinase.
In test [3] the target is Epidermal growth factor receptor (Homo sapiens, UniProt P00533). Kind of test: Inhibition of Epidermal growth factor receptor.
Sequence of Epidermal growth factor receptor (P00533 whole entry): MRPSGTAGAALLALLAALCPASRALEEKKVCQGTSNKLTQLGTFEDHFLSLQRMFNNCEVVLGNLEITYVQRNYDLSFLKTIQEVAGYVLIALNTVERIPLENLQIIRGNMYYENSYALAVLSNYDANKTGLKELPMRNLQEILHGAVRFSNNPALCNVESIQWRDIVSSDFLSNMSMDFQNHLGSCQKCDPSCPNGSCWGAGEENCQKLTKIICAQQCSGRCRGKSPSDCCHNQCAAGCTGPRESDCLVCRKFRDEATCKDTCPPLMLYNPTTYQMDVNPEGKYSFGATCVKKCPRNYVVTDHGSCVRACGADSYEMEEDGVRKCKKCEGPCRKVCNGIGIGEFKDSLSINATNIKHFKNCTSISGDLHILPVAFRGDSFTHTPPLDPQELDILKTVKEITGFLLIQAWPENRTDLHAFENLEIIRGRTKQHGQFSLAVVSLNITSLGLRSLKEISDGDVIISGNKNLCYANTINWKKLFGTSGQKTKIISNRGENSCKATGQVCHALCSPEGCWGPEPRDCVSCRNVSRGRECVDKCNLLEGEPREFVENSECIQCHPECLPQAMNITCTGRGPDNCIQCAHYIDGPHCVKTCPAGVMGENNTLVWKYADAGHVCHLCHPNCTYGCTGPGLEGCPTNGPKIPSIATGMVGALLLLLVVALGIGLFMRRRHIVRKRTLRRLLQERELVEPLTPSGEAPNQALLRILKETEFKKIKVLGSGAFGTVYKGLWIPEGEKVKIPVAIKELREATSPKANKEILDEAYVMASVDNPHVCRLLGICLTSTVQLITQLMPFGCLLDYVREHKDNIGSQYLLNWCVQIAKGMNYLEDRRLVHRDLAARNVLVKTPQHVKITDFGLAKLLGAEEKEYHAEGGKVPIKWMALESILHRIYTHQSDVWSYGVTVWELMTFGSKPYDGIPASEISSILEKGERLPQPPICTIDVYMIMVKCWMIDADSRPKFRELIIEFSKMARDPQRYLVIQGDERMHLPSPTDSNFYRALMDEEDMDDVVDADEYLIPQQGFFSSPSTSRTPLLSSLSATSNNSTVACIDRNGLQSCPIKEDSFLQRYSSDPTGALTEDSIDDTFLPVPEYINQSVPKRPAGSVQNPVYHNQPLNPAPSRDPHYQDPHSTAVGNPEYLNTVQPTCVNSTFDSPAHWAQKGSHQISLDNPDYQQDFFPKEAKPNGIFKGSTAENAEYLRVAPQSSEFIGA
The target in test [4] is Tyrosine-protein kinase JAK1 (Homo sapiens, UniProt P23458). Put plainly: Inhibition of Janus kinase 1.
Sequence of Tyrosine-protein kinase JAK1 (P23458 whole entry): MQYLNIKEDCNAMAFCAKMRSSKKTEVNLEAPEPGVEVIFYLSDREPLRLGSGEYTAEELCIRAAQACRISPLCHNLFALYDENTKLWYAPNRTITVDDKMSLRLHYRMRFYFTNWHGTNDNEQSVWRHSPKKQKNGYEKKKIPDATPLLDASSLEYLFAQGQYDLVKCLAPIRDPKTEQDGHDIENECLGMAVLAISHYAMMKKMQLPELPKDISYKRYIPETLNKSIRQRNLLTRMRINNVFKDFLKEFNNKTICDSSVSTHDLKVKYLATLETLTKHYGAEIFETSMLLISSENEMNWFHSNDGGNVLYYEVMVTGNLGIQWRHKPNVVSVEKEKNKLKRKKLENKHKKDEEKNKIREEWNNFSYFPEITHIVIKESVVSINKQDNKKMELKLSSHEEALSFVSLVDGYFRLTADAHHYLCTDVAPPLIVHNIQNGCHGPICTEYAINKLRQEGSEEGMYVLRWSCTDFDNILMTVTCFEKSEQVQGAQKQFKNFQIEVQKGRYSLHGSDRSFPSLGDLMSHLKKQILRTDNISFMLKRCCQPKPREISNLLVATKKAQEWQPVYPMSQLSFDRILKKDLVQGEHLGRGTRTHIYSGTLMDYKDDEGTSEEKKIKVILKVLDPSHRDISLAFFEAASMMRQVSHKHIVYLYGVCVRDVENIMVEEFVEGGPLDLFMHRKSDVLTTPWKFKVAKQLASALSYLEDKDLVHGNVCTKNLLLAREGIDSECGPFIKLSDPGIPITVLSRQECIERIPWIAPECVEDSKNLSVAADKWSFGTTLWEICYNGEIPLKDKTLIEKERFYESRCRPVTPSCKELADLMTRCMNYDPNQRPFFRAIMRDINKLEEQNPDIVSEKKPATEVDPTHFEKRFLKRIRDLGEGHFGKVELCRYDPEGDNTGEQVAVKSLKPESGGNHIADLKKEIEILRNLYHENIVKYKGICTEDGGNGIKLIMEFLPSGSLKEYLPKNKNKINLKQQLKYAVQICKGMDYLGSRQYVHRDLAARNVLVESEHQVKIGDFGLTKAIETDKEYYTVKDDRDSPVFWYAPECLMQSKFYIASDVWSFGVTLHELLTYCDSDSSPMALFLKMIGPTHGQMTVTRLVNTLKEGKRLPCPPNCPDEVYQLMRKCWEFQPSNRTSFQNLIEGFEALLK

Sequence of Tyrosine-protein kinase Lck (P06239 whole entry): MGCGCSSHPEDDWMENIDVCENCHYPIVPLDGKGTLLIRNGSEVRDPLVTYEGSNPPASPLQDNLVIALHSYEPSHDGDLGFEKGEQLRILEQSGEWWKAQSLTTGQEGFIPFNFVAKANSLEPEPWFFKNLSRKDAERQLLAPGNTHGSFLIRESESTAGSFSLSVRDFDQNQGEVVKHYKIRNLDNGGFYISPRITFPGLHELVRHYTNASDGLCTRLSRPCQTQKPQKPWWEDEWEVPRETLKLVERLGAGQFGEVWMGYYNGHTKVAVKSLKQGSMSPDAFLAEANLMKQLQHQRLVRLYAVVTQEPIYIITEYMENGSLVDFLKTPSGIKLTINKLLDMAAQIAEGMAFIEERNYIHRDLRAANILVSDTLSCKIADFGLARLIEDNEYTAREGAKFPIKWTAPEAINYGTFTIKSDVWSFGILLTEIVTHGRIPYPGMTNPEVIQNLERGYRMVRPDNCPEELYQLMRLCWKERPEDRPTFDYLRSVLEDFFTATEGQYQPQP
Sequence of Cyclin-dependent kinase 4 (P11802 whole entry): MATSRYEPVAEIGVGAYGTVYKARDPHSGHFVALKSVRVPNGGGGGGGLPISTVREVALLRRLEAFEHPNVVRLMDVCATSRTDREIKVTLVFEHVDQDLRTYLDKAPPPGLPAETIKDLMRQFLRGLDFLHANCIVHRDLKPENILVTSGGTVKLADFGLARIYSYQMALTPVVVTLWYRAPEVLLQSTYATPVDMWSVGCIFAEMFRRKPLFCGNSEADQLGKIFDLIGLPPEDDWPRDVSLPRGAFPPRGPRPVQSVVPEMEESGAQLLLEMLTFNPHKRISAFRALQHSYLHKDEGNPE

For the molecule `C=CC(=O)c1ccc2ccccc2c1`, the IC50 (in general, the concentration needed to halve the response being measured) was greater than 10 µM in test [1], greater than 10 µM in test [2], 10 µM in test [3] and 20 µM in test [4].
As for `CC(C)N(CCC(=O)c1ccc2ccccc2c1)Cc1ccccc1`, the half-maximal inhibitory concentration (IC50) in test [1] was greater than 10 µM; in test [2], greater than 10 µM; in test [3], 2.51 µM; in test [4], 39.8 µM.
